Measured values from patent US20080262014A1, “Use of Camptothecin Derivatives for the Treatment of Proliferative Diseases in a Fixed Dosing Regimen” (priority 2004, published 2008).
Entries after “also recorded” stand apart in the source; their conditions may differ.

Experiments:
clinical = test: clinical; design: species or system patients; conditions: human, in vivo
Text: The optimal dose and schedule of gimatecan stems mainly from the putative therapeutic window identified from the PK/PD analysis of completed phase I data. The target range of cumulative gimatecan cycle exposure (AUC 5,000-10,000 (ng)(hr)/mL) was selected because it produces partial responses and yet is below the exposure where grade III/IV neutropenia and thrombocytopenia adverse events became evident (FIG. 1). […] This may explain why toxicity could not be differentiated among the three schedules; all three schedules exceeded the putative effective daily exposure and were in a potentially toxic range. […] The flat dose is dosed every third day, or once every three days, or every 72 hours, or at one half-life to avoid potential accumulation. The starting doses are chosen to target a systemic exposure of 200-400 (ng)(hr)/mL (the “therapeutic window”) once every three days.

[1] = Clinical pharmacokinetics (disposition) of oral gimatecan in phase I patients with refractory malignancies; format: in vivo
Method: The disposition of oral gimatecan is evaluated in patients with refractory malignancies administered on a daily schedule for 5, 10, or 15 consecutive days or a weekly schedule for 3 weeks of a 28 day cycle. The disposition of gimatecan using these four schedules are depicted in FIGS. 3 (a-d). Clinical pharmacokinetics is assessed on the first and last days of the first cycle of daily dosing. […] However, patients were dosed based on their body surface area. Patients who responded to gimatecan had taken 0.45 mg, 0.9 mg, 1.1 mg or 1.6 mg which made it difficult to pick an effective dose.

With `CC[C@@]1(O)C(=O)OCc2c1cc1n(c2=O)Cc2c-1nc1ccccc1c2/C=N/OC(C)(C)C` [gimatecan, 7-(t-butoxy)imino methyl camptothecin] as the molecule, how does the AUC at 1 day (clinical) read?
The AUC at 1 day was 200 to 400 ng·h/mL.

What about the AUC at 1 cycle (clinical; iv) of the same molecule?
Its AUC at 1 cycle is 5000 to 10000 ng·h/mL.

What about the “body surface area as predictor of gimatecan clearance” value ([1]; 78 patients receiving four schedules) of the same molecule?
The value was “lack of correlation; also recorded: not a good predictor; also recorded: not predicted by body surface area”.

And the half-life ([1]; human, in vivo, oral, estimated from 10 patients receiving the weekly schedule, read-out: terminal harmonic mean half-life (converted))?
The half-life was 3.58 days.

And the “apparent oral clearance, dependence on dose” value ([1]; oral, four schedules)?
Its value is “independent of dose”.

What about the drug accumulation ([1]; weekly and daily schedule) of the same molecule?
Its drug accumulation is “Drug accumulation is observed”.
